Results taken from patent publication US7223733B2, “Modulation of TRIP-Br function and method of treating proliferative disorders” (National University of Singapore, priority 2004, dated 2007).
Where no end group is shown, it is not given here. [invdT] = inverted (3'-3') thymidine

Columns and labels:
Type in all cases: cell-based, human
[1] = system: CCNE gene; experiment: Semi-quantitative RT-PCR of CCNE in serum-stimulated WI-38 cells; conditions: WI-38, serum stimulation
Description: Semi-quantitative RT-PCR. Following various treatments, WI-38 cells in 6-well culture dish were subjected to total RNA extraction using the TRIZOL® Reagent (Life Technologies). Total RNA (4 μg) was reversed transcribed using oligo-dT and M-MLV reverse transcriptase in a total reaction volume of 20 μl. Polymerase Chain Reactions (PCR) were carried out on 3 μl cDNA sample in the presence of […] deoxyribonucleotide triphosphates (dNTPs) and 40 μM of specific primer pairs in a total reaction volume of 50 μl. The cycling profile for PCR was as follow: 30 cycles of denaturation (94° C., 30 sec), annealing (51° C., 30 sec) and extension (72° C., 2 min), with a 2-minute initial denaturation step at 94° C. and a 10-minute polishing step at 72° C. at the end. Sequences of gene-specific primers are available upon request. Post-PCR samples were analyzed by agarose gel electrophoresis.
FIG. 14: (A) E-Br1 or E-Br2 attenuates mitogen-stimulated CCNE gene induction. Sub-confluent WI-38 cells were serum-starved for 72 h. Following DNA enzyme transfection, the cultures were re-stimulated with serum and allowed to proliferate. After 20 h, cells were harvested and total RNA extracted for semi-quantitative RT-PCR to assess CCNE expression. β-actin was included as an internal control. PCR products were resolved by agarose gel electrophoresis and ethidium bromide-stained DNA bands were visualized under UV. […]

[2] = system: WI-38 cells; experiment: BrdU incorporation, E2F1/DP1 and cyclin E/Cdk2-induced S phase entry of quiescent WI-38 cells; conditions: quiescent WI-38, 0.1 μM
Description: Cell proliferation assays. For the BrdU incorporation assays, growth-quiescent WI-38 cells in 96-well dishes were transfected with DNA enzyme and/or 100 ng of pCMV/E2F1, pCMV/DP1, pRSV/Cyclin E, or pCMV/Cdk2 and then exposed to Bromodeoxyuridine (BrdU, 100 μM) in the presence or absence of 10% FBS for 20 h. Bromodeoxyuridine (BrdU) incorporation was monitored with a calorimetric ELISA assay using a cell proliferation kit according to manufacturer's recommendations (Boehringer Mannheim). For manual cell count, growth-quiescent WI-38 cells in 24-well dishes were transfected with DNA enzyme and then exposed to 10% FBS for 72 h. The cells were rinsed with PBS, pH 7.4, and trypsinized, and 10 μl of cell suspension was taken from each sample and mixed with equal volume of trypan blue stain (Sigma, 0.4% w/v in 1×PBS). The number of unstained cells was enumerated manually using a hemocytometer. For colony formation assays, growth-quiescent WI-38 cells in 12-well dishes were transfected with DNA enzyme and then exposed to 10% FBS for 120 h. Cells were stained in situ with crystal violet (0.75% w/v hexamethyl-p-rosaniline chloride [SIGMA], 50% ethanol, 1.75% w/v paraformaldehyde, 0.25% w/v NaCl) for 10 min, and then rinsed thoroughly with deionized water to remove excess stains.
FIG. 13: (A) E-Br1 or E-Br2 suppresses serum-inducible S phase entry. […]

[3] = system: E2F-responsive luciferase reporter (pGL3-TATA-6xE2F-Luc); experiment: E2F-responsive luciferase reporter assay in U2OS cells; conditions: 50 μM, 5 h
Description: DNA Transfection and Sequential β-Galactosidase/Luciferase Assay. For luciferase reporter assays, U2OS cells were cultured in 6-well dishes and transfected 24 h later with various reporter plasmids by the calcium precipitation method as previously described (Martin, K., et al. Nature 375, 691-694 (1995)). 24 h following precipitate removal, cells were exposed for 5 h to either vehicle (0.5% DMSO) or 50 μM of decoy peptide, prior to harvesting. Cells were scraped in 200 μl of lysis buffer and a single 10 μl aliquot of lysate was immediately used for sequential measurement of β-galactosidase and luciferase activity using the Dual Light System (Tropix). For protein overexpression experiments, U2OS cells were cultured in 6-well plates at a density of 1×10^5 cells/well and transfected 24 h later with Superfect reagent (QIAGEN).
FIG. 3: Analysis of E2F-responsive transcription in U2OS cells in response to decoy peptide treatment. […] Values represent the average +/− standard deviation of at least two independent experiments; (B) Semi-quantitative RT-PCR analysis on total RNA for dhfr, cyclin-E, cyclin A2, PCNA, DNA Pola and cdc2 expression in U2OS cells exposed for 16 h to either vehicle (0.5% DMSO) or 50 μM of the indicated decoy peptides. […]

## 5′-T TGCTCAGCAGGCTAGCTACAACGACTTGCTCA-3′ (DNA TTGCTCAGCAGGCTAGCTACAACGACTTGCTCA; DNA, 3' [invdT], backbone not given here) [E-Br1]
[1]
  serum-induced CCNE gene activation: suppressed
[2]
  S phase entry induced by co-expression of E2F1/DP1 and cyclin E/Cdk2: does not influence

## ERQIKIWFQNRRMKWKKATGCLLDDGLEGLFEDID (ERQIKIWFQNRRMKWKKATGCLLDDGLEGLFEDID-NH2) [*Br1]
[3]
  transcriptional activity of the E2F-responsive luciferase reporter: decreased the transcriptional activity

## ERQIKIWFQNRRMKWKKTGFLTDLTLDDILFADID (ERQIKIWFQNRRMKWKKTGFLTDLTLDDILFADID-NH2) [*Br2]
[3]
  transcriptional activity of the E2F-responsive luciferase reporter: decreased the transcriptional activity

## 5′-T TACCCAACAGGCTAGCTACAACGAATATCACA-3′ (DNA TTACCCAACAGGCTAGCTACAACGAATATCACA; DNA, 3' [invdT], backbone not given here) [E-Br2]
[1]
  serum-induced CCNE gene activation: suppressed
[2]
  S phase entry induced by co-expression of E2F1/DP1 and cyclin E/Cdk2: does not influence
